Test results: article PMC6851324, “Design and development of stapled transmembrane peptides that disrupt the activity of G-protein–coupled receptor oligomers” (The Journal of Biological Chemistry, 2019)
Where a SMILES comes first, the peptide text is derived from it.

Tests used:
5-HT2AR–CB1R heteromers = test system: 5-HT2AR–CB1R heteromers; set-up: method as in 2 sources, ref 16 = [16]; PMID 26158621; doi:10.1371/journal.pbio.1002194; 16. Viñals X. , Moreno E. , Lanfumey L. , Cordomí A. , Pastor A. , de La Torre R. , Gasperini P. , Navarro G. , Howell L. A. , Pardo L. , Lluís C. , Canela E. I. , McCormick P. J. , Maldonado R. , and ||| ref 4, unpublished observations; settings: synthetic TM-mimicking peptides fused to HIV-TAT; cited from earlier work
[1] = molecular target: T1, trypsin from porcine pancreas (Sus scrofa, UniProt P00761); assay: Proteolytic stability against trypsin; assay type: in vitro ADME; settings: pig, isolated enzyme trypsin; 55.5 μM peptide, 0.55 μg/ml trypsin from porcine pancreas, ammonium bicarbonate buffer pH 7.5, 37 °C, 15–480 min, intact peptide by RP-HPLC (Fmoc-Gly internal standard), n = 3, nonlinear regression fit; read-out: Half-life (min), trypsin
T1 construct: purchased Sigma; host or cells: porcine pancreas
T1 sequence (P00761 9-231): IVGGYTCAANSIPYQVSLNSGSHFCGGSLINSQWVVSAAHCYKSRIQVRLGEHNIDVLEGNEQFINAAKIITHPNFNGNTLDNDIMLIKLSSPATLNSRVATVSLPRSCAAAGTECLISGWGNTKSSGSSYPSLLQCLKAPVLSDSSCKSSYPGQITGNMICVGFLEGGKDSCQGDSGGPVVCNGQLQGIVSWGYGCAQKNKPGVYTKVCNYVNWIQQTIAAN
Method: (§1) Figure 4. Biophysical analysis of stapled peptides. A, amino acid sequence alignment of the targeted TM regions and disrupting peptides. Cys residues are in the reduced state. Blue bridges indicate the stapled amino acid residues. […] Yields, purity, and MALDI-TOF data are shown for the stapled peptides and negative control. B, CD analysis of 30–50 μM peptides at 20 °C. For proteolytic stability studies, the peptide solution (55.5 μM for trypsin and chymotrypsin and 11.1 μM for serum) was incubated in the presence of 0.55 μg/ml trypsin from porcine pancreas (E), α-chymotrypsin (F), or mouse serum (G) at 37 °C for the indicated times (indicated on the x axis). Data are mean ± S.E. (error bars) (n = 3) percentage of intact peptide normalized to t = 0. Proteolytic half-lives and putative cleavage sites (predicted using the Expasy bioinformatics server's model with a 50% probability of cleavage) are indicated at the bottom of each panel. Positive correlation between helicity and half-life in trypsin/chymotrypsin (C) or serum (D) was determined by two-tailed Pearson's correlation test. TEXT PRINTED IN THE PICTURE: (B) TM7-TAT: Ellipticity (%): 3.4 | (B) TM6-TAT: Ellipticity (%): 18.3 | (B) TM5-TAT: Ellipticity (%): 20.9 | (B) 8: Ellipticity (%): 58.3 | (B) 9: Ellipticity (%): 46.4 | (B) 10: Ellipticity (%): 36.8 | (B) 11: Ellipticity (%): 46 | (E) TM7-TAT: Half-life (min): 21; #Cleavage sites: 8 | (E) TM6-TAT: Half-life (min): 40; #Cleavage sites: 7 | (E) TM5-TAT: Half-life (min): 33; #Cleavage sites: 8 | (E) 8: Half-life (min): 307; #Cleavage sites: 0 | (E) 9: Half-life (min): 178; #Cleavage sites: 0 | (E) 10: Half-life (min): 75; #Cleavage sites: 6 | (E) 11: Half-life (min): 84; #Cleavage sites: 0 | (F) TM7-TAT: Half-life (min): 22; #Cleavage sites: 6 | (F) TM6-TAT: Half-life (min): 32; #Cleavage sites: 7 | (F) TM5-TAT: Half-life (min): 28; #Cleavage sites: 7 | (F) 8: Half-life (min): 425; #Cleavage sites: 4 | (F) 9: Half-life (min): 198; #Cleavage sites: 3 | (F) 10: Half-life (min): 63; #Cleavage sites: 2 | (F) 11: Half-life (min): 79; #Cleavage sites: 4 | (G) TM7-TAT: Half-life (hours): 0.46 | (G) TM6-TAT: Half-life (hours): 0.55 | (G) TM5-TAT: Half-life (hours): 0.81 | (G) 8: Half-life (hours): ≥18 | (G) 9: Half-life (hours): 14.7 | (G) 10: Half-life (hours): 11.7 | (G) 11: Half-life (hours): 5.3 DOUBTS OF THE COPYIST ABOUT THIS PICTURE: Panel A table (Yield, Rt, Purity, [M+H+] calc., [M+H+] Peak Found for 7-11) left out as synthesis and mass-spectrum characterisation data; uncertain whether [M+H+] calc. should count as a molecular weight
(§2) Dose–response curves were fitted using a four-parameter logistic nonlinear regression mode. Peptide stability data were fitted using a nonlinear regression mode for dissociation kinetics. All statistical tests, curve fitting, and graphing were performed using GraphPad Prism 8 (GraphPad Software, La Jolla, CA).
To 100 μl of peptide solution (100 μM, dissolved in ammonium bicarbonate buffer, pH 7.5), 60 μl of ammonium bicarbonate buffer (pH 7.5) was added, together with 20 μl of temperature-equilibrated (37 ± 1 °C) trypsin (5 μg/ml) from porcine pancreas (Sigma, 13,000–20,000 BAEE units/mg of protein). Peptides were incubated for 15, 30, 60, 120, 240, and 480 min, and then MeOH (HPLC Grade) + 0.05% TFA was added. The samples were then centrifuged (15,000 rpm), and the supernatant was analyzed, using Fmoc-Gly (10 μl, 0.2 mM) as an internal standard. The digestion at each time point was repeated three times to give the average values along with S.D. The amount of intact peptide that remained in the mixture was quantified by RP-HPLC. The experiment was repeated twice on different days.

[2] = molecular target: T2, α-chymotrypsin from bovine pancreas (Bos taurus, UniProt P00766, DEL14-15/DEL147-148); assay: Proteolytic stability against chymotrypsin; assay type: in vitro ADME; settings: cattle, isolated enzyme chymotrypsin; 55.5 μM peptide, 0.55 μg/ml α-chymotrypsin from bovine pancreas, ammonium bicarbonate buffer pH 7.5, 37 °C, 15–480 min, intact peptide by RP-HPLC, n = 3, nonlinear regression fit; read-out: Half-life (min), α-chymotrypsin
T2 construct: purchased Sigma Type II; host or cells: bovine pancreas
Method: as §1, §2
To 100 μl of peptide solution (100 μM, dissolved in ammonium bicarbonate buffer, pH 7.5), 60 μl of ammonium bicarbonate buffer (pH 7.5) was added, together with 20 μl of temperature-equilibrated (37 ± 1 °C) α-chymotrypsin (5 μg/ml) from bovine pancreas (Sigma, Type II, activity > 40 units/mg protein). Peptides were incubated for 15, 30, 60, 120, 240, and 480 min, and then MeOH (HPLC grade) + 0.05% TFA was added. The samples were then centrifuged (15,000 rpm), and supernatant was analyzed in a similar manner as described above. The experiment was repeated twice on different days.

Stability in mouse serum = assay type: in vitro ADME; settings: 11.1 μM peptide, fresh nonsterile mouse serum (200 μl serum + 25 μl peptide solution, pH 7.5 buffer with 10% DMSO), 37 °C, quench 15% TCA in acetonitrile, HPLC, n = 3; read-out: Half-life (hours), mouse serum (converted)
Method: as §1, §2
To 200 μl of fresh nonsterile mouse serum was added 25 μl of peptide solution (100 μM, dissolved in ammonium bicarbonate buffer, pH 7.5, containing 10% DMSO), and the mixture was incubated at 37 °C. At the specified time, an aliquot of incubation mixture was withdrawn and quenched by the addition of an equal volume of 15% TCA in acetonitrile to precipitate out serum proteins over ice for 30 min. The mixture was then centrifuged at 13,500 rpm for 10 min, and the supernatant was collected and analyzed by HPLC in a similar manner as described previously. The experiment was repeated twice on different days.

[3] = molecular target: T3, 5-HT2AR N-terminally tagged with LgBiT or SmBiT, CMV promoter (human, UniProt P28223 1-471); assay: split reporter (BiFC, NanoBiT); NanoBiT orientation screens: LgBiT and SmBiT receptor fusions (C- or N-terminal, CMV promoter) transiently co-transfected in HEK293 cells at 50 or 100 ng of receptor/well, compared with each construct alone; live cells, 24 h post-transfection, furimazine substrate; settings: partners not purified
T3 construct: 5-hydroxytryptamine 2A receptor (5-HT2AR), human, cloned from the cDNA Resource Center plasmid; also called SmBiT–5-HT2AR; SmBiT 5-HT2AR; source: HEK293, transiently transfected (CMV promoter), live cells; not shown: LgBiT or SmBiT (one of the two on each copy; SmBiT in the peptide screen), N-terminal, kept
T3 sequence (P28223 whole entry, the tested form may be a part): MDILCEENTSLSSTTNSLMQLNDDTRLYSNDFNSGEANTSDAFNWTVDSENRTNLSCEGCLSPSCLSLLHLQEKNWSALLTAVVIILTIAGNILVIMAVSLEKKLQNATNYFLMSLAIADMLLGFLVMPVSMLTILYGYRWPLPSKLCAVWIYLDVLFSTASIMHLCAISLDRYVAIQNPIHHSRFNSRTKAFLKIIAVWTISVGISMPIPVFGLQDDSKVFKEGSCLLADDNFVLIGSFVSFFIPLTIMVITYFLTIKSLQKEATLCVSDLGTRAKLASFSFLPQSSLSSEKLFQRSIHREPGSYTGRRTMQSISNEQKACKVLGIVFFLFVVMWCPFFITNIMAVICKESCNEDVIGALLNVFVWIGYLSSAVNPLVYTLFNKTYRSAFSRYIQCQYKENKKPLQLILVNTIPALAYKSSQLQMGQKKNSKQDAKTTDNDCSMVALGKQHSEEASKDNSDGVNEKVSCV

fold change of luminescence over the individual receptor construct [3]	Molecule	disruption of 5-HT2AR–CB1R heteromers (previous studies) (5-HT2AR–CB1R heteromers)	half-life at 55.5 μM [1]	half-life at 55.5 μM [2]	half-life at 11.1 μM (Stability in mouse serum)
–	CC[C@H](C)[C@H](NC(=O)[C@@H](NC(=O)[C@@H]1CCCN1C(=O)[C@H](CC(N)=O)NC(=O)[C@@H](NC(=O)[C@@H](NC(=O)[C@H](CO)NC(=O)[C@H](CC(N)=O)NC(=O)[C@H](CC(C)C)NC(=O)[C@H](CC(C)C)NC(=O)[C@H](CS)NC(=O)[C@H](CC(C)C)NC(=O)[C@H](CCSC)NC(=O)[C@H](CO)NC(=O)[C@H](CS)NC(=O)[C@H](Cc1ccccc1)NC(=O)[C@H](C)NC(=O)[C@H](Cc1ccccc1)NC(=O)[C@@H](NC(=O)[C@@H](NC(=O)[C@H](CCCCN)NC(=O)[C@@H](NC(=O)[C@@H](N)CC(C)C)[C@@H](C)CC)[C@@H](C)O)C(C)C)[C@@H](C)O)C(C)C)[C@@H](C)CC)C(=O)N[C@@H](Cc1ccc(O)cc1)C(=O)N[C@@H](C)C(=O)N[C@@H](CC(C)C)C(=O)N[C@@H](CCCNC(=N)N)C(=O)NCC(=O)N[C@@H](CCCNC(=N)N)C(=O)N[C@@H](CCCCN)C(=O)N[C@@H](CCCCN)C(=O)N[C@@H](CCCNC(=N)N)C(=O)N[C@@H](CCCNC(=N)N)C(=O)N[C@@H](CCC(N)=O)C(=O)N[C@@H](CCCNC(=N)N)C(=O)N[C@@H](CCCNC(=N)N)C(=O)N[C@@H](CCCNC(=N)N)C(=O)O [TM7-TAT, reference compound] (H-LIKTVFAFCSMLCLLNSTVNPIIYALRGRKKRRQRRR-OH)	did not disrupt the heteromer	21 min	22 min	0.46 h
~200 fold	CB1R N-terminally tagged with LgBiT or SmBiT, CMV promoter (receptor, human, UniProt P21554 1-472, looked up, cannabinoid receptor type 1 (CB1R), human, cloned from the cDNA Resource Center plasmid; also called LgBiT–CB1R; LgBT–CB1R; source: HEK293, transiently transfected (CMV promoter), live cells; not shown: LgBiT or SmBiT (one of the two on each copy; LgBiT in the peptide screen), N-terminal, kept) MKSILDGLADTTFRTITTDLLYVGSNDIQYEDIKGDMASKLGYFPQKFPLTSFRGSPFQEKMTAGDNPQLVPADQVNITEFYNKSLSSFKENEENIQCGENFMDIECFMVLNPSQQLAIAVLSLTLGTFTVLENLLVLCVILHSRSLRCRPSYHFIGSLAVADLLGSVIFVYSFIDFHVFHRKDSRNVFLFKLGGVTASFTASVGSLFLTAIDRYISIHRPLAYKRIVTRPKAVVAFCLMWTIAIVIAVLPLLGWNCEKLQSVCSDIFPHIDETYLMFWIGVTSVLLLFIVYAYMYILWKAHSHAVRMIQRGTQKSIIIHTSEDGKVQVTRPDQARMDIRLAKTLVLILVVLIICWGPLLAIMVYDVFGKMNKLIKTVFAFCSMLCLLNSTVNPIIYALRSKDLRHAFRSMFPSCEGTAQPLDNSMGDSDCLHKHANNAASVHRAAESCIKSTVKIAKVTMSVSTDTSAEAL	–	–	–	–
